Reference: patent publication US20190119270A1, “N-Oxide Compound and Its Use in Treating Cancer” (AstraZeneca AB, priority 2016, published 2019)

Key:
Format in all cases: cell-based
PI3Kα = PI3Kα (Homo sapiens, UniProt P42336); test: PI3K cellular potency assay (phospho-Akt T308 ELISA in BT474 cells); settings: 2 h, phospho-Akt (T308); read-out: Assay c) PI3Kα Cell IC50
Excerpt: This assay was used to measure PI3K-a inhibition in cells. PDK1 was identified as the upstream activation loop kinase of protein kinase B (Akt1), which is essential for the activation of PKB. Activation of the lipid kinase phosphoinositide 3 kinase (PI3K) is critical for the activation of PKB by PDK1.
Following ligand stimulation of receptor tyrosine kinases, PI3K is activated, which converts PIP2 to PIP3, which is bound by the PH domain of PDK1 resulting in recruitment of PDK1 to the plasma membrane where it phosphorylates AKT at Thr308 in the activation loop.
The aim of this cell-based mode of action assay is to identify compounds that inhibit PDK activity or recruitment of PDK1 to membrane by inhibiting PI3K activity. Phosphorylation of phospho-Akt (T308) in BT474c cells following treatment with compounds for 2 h is a direct measure of PDK1 and indirect measure of PI3K activity. […]
After 20 minutes, the cell lysates were transferred into ELISA plates (Greiner #781077) which had been pre-coated with an anti total-AKT antibody in PBS buffer and non-specific binding was blocked with 1% BSA in PBS containing 0.05% Tween 20. […] Plates were read using a Tecan Safire plate reader using 325 nm excitation and 420 nm emission wavelengths respectively. […]

ATM = biological target: T1, ATM (Homo sapiens, UniProt Q13315); test: ATM cellular potency assay (pATM Ser1981 in irradiated HT29 cells); settings: X-ray irradiation, pATM (Ser1981); read-out: Assay a) ATM Cell IC50
T1 construct: endogenous in cells; host or cells: HT29 cells (ECACC #85061109)
T1 sequence (Q13315 whole entry): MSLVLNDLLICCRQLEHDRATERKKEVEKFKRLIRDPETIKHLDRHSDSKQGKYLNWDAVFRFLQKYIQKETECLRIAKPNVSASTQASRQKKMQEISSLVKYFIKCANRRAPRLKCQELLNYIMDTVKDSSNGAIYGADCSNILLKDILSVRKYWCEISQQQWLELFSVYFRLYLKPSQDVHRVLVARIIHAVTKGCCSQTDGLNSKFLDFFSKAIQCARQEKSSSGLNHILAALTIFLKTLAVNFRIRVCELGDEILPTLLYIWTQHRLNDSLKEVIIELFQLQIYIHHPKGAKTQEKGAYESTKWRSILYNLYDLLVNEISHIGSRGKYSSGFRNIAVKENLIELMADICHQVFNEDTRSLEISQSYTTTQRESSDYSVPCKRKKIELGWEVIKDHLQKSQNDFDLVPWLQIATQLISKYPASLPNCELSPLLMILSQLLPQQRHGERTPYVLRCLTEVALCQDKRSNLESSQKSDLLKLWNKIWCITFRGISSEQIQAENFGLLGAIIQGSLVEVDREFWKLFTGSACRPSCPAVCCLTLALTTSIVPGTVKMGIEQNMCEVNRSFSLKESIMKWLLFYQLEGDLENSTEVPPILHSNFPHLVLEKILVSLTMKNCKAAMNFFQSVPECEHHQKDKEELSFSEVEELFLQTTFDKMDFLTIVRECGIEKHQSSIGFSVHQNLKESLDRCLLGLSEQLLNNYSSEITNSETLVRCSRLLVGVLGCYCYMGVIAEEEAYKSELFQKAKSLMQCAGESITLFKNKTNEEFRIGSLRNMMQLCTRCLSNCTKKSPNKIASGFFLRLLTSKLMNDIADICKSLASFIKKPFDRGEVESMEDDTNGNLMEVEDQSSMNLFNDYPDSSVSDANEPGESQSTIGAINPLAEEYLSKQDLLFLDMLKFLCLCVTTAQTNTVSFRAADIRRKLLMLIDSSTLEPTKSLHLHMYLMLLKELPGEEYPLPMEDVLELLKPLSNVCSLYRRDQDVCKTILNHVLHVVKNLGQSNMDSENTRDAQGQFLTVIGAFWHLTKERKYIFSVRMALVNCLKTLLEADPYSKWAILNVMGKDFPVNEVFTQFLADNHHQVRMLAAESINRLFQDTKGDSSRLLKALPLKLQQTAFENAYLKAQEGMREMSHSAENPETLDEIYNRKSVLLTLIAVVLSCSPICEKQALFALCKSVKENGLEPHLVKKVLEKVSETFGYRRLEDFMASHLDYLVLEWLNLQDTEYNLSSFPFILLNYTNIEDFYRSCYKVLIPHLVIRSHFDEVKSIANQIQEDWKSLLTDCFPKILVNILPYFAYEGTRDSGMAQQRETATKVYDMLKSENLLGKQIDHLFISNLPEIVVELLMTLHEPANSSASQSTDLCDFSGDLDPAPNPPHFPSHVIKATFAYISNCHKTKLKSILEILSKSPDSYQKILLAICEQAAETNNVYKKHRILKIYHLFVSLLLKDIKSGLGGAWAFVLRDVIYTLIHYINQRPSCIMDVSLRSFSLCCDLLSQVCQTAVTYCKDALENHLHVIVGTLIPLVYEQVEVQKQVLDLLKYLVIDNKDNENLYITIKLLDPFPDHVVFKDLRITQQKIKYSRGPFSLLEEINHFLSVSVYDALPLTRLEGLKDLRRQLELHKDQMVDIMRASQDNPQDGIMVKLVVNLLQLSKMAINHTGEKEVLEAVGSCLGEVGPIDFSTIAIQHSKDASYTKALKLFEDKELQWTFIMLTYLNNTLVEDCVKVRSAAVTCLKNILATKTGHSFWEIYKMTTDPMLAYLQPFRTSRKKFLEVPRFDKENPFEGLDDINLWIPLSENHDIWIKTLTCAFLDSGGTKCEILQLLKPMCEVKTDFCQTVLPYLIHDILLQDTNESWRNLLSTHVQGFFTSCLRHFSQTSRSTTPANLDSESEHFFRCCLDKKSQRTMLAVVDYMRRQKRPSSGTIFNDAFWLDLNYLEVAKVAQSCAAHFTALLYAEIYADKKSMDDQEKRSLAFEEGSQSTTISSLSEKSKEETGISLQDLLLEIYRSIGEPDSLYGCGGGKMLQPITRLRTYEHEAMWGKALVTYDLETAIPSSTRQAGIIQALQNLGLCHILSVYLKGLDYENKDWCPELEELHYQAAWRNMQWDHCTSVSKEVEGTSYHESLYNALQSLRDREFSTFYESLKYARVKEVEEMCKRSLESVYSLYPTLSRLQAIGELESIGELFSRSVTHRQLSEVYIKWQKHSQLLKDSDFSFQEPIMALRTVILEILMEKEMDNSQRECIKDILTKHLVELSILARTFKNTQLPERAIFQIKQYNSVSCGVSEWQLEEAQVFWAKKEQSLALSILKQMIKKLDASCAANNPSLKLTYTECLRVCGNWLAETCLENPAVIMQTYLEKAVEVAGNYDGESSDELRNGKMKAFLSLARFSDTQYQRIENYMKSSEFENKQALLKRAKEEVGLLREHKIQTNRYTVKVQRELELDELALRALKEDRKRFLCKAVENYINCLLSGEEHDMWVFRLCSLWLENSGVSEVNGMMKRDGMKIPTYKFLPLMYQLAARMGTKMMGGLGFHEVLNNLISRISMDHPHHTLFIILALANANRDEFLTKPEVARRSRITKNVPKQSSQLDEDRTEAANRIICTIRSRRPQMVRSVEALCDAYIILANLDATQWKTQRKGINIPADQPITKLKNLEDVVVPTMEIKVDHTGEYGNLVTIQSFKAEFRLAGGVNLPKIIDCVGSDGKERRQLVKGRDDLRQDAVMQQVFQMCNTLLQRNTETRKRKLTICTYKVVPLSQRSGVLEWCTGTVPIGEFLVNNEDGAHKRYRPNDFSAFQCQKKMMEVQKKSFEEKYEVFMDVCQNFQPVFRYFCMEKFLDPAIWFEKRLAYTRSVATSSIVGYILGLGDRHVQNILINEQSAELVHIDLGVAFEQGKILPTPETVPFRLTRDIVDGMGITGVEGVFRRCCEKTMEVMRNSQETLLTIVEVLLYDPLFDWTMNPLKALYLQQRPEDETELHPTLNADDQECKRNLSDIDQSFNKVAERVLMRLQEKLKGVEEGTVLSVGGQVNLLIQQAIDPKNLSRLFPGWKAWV
Excerpt: Cellular irradiation induces DNA double strand breaks and rapid intermolecular autophosphorylation of serine 1981 that causes dimer dissociation and initiates cellular ATM kinase activity. Most ATM molecules in the cell are rapidly phosphorylated on this site after doses of radiation as low as 0.5 Gy, and binding of a phosphospecific antibody is detectable after the introduction of only a few DNA double-strand breaks in the cell.
The rationale of the pATM assay is to identify inhibitors of ATM in cells. HT29 cells are incubated with test compounds for lhr prior to X-ray-irradiation. 1 h later the cells are fixed and stained for pATM (Ser1981). The fluorescence is read on the arrayscan imaging platform.
HT29 cells (ECACC #85061109) were seeded into 384 well assay plates (Costar #3712) at a density of 3500 cells/well in 40 μl EMEM medium containing 1% L glutamine and 10% FBS and allowed to adhere overnight. […]
Phospho-ATM Ser1981 antibody (Millipore #MAB3806) was diluted 10000 fold in PBS containing 0.05% polysorbate/Tween and 3% BSA and 20 μl was added to each well and incubated over night at r.t. […] After 1 h incubation at r.t., the plates were washed three times with 50 μl/well PBS, using a Biotek EL405 plate washer, and plates were sealed and kept in PBS at 4° C. until read. Plates were read using an ArrayScan VTI instrument, using an XF53 filter with 10× objective. […]

mTOR = biological target: T2, mTOR (Homo sapiens, UniProt P42345); test: mTOR cellular potency assay (phospho-AKT Ser473 in MDA-MB-468 cells); settings: 2 hours, phospho-AKT (Ser473), protocol A or B; read-out: Assay d) mTOR Cell IC50
T2 construct: endogenous in cells; host or cells: MDA-MB-468 cells
Experimental: The phospho-AKTser473 cell assay was performed in the MDA-MB-468 cell line, a PTEN null breast adenocarcinoma human cell line. As a consequence of the lack of PTEN, pAKT is constitutively activated which eliminates the requirement for stimulation to induce phosphorylation.
MDA-MB-468 cells were cultured in cell media composed of DMEM (Dulbecco's modified Eagle's medium #D6546)), 10% (v/v) Foetal Calf Serum and 1% (v/v) L-Glutamine. After harvesting, cells were dispensed into black, 384-well Costar plates (#3712, Corning) to give 1500 cells per well in a total volume of 40 μl cell media, and were incubated overnight at 37° C., 90% relative humidity and 5% CO2 in a rotating incubator. […]
Stained cell plates were covered with black seals, and then read on the Acumen (TTP Labtech) plate reader. The primary channel (green fluorescence, 488 nm) is used to set the intensity settings for the max/min cut off to allow for weekly variation in staining and the ‘AKT+: No of objects (No)’ data is used for the analysis. Data was analysed and IC50s were calculated using Genedata Screener® software. […]
Stained cell plates were covered with black seals, and then read on the Cell Insight imaging platform (Thermo Scientific), with a 10× objective. […] The secondary channel (Green […], BGRFR_485_20) measures pAKT staining Data was analysed and IC5os were calculated using Genedata Screener® software.

ATR = biological target: T3, ATR (Homo sapiens, UniProt Q13535); test: ATR cellular potency assay (pChk1 Ser345 in HT29 cells with 4NQO); settings: pChk1 (Ser 345); read-out: Assay b) ATR Cell IC50
T3 construct: endogenous in cells; host or cells: HT29 cells (ECACC #85061109)
Excerpt: ATR is a PI 3-kinase-related kinase which phosphorylates multiple substrates on serine or threonine residues in response to DNA damage during or replication blocks. Chk1, a downstream protein kinase of ATR, plays a key role in DNA damage checkpoint control. Activation of Chk1 involves phosphorylation of Ser317 and Ser345 (the latter regarded as the preferential target for phosphorylation/activation by ATR). This was a cell based assay to measure inhibition of ATR kinase, by measuring a decrease in phosphorylation of Chk1 (Ser 345) in HT29 cells, following treatment with compound of Formula (I) and the UV mimetic 4NQO (Sigma #N8141).
HT29 cells (ECACC #85061109) were seeded into 384 well assay plates (Costar #3712) at a density of 6000 cells/well in 40 μl EMEM medium containing 1% L glutamine and 10% FBS and allowed to adhere overnight. […]
Phospho-Chk1 Ser 345 antibody (Cell Signalling Technology #2348) was diluted 150 fold in PBS containing 0.05% polysorbate/Tween and 15 μl was added to each well and incubated over night at r.t. […] After 2 h incubation at r.t., the plates were washed three times with 50 μl/well PBS, using a Biotek EL405 plate washer, and plates were then sealed with black plate seals until read. Plates were read using an ArrayScan VTI instrument, using an XF53 filter with 10× objective. […]

Sequence of PI3Kα (P27986 2-724): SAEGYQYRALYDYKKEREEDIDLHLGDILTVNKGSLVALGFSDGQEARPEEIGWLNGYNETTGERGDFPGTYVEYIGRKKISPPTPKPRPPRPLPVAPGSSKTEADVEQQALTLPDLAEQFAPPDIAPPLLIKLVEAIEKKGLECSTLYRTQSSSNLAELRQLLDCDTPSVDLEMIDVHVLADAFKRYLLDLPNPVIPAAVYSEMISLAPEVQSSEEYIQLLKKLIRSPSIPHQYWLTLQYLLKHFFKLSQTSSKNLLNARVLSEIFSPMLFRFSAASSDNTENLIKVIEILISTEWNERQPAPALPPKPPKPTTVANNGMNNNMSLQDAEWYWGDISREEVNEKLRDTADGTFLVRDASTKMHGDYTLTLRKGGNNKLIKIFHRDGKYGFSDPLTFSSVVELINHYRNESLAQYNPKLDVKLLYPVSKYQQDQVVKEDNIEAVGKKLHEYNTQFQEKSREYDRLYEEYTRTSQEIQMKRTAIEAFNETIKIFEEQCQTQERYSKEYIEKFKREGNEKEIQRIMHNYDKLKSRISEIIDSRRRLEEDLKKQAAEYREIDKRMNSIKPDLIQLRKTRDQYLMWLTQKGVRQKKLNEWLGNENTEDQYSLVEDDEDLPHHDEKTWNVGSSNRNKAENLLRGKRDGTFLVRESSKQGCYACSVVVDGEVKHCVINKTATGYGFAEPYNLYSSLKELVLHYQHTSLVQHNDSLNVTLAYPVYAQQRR
Sequence of PI3Kα (P42336 whole entry): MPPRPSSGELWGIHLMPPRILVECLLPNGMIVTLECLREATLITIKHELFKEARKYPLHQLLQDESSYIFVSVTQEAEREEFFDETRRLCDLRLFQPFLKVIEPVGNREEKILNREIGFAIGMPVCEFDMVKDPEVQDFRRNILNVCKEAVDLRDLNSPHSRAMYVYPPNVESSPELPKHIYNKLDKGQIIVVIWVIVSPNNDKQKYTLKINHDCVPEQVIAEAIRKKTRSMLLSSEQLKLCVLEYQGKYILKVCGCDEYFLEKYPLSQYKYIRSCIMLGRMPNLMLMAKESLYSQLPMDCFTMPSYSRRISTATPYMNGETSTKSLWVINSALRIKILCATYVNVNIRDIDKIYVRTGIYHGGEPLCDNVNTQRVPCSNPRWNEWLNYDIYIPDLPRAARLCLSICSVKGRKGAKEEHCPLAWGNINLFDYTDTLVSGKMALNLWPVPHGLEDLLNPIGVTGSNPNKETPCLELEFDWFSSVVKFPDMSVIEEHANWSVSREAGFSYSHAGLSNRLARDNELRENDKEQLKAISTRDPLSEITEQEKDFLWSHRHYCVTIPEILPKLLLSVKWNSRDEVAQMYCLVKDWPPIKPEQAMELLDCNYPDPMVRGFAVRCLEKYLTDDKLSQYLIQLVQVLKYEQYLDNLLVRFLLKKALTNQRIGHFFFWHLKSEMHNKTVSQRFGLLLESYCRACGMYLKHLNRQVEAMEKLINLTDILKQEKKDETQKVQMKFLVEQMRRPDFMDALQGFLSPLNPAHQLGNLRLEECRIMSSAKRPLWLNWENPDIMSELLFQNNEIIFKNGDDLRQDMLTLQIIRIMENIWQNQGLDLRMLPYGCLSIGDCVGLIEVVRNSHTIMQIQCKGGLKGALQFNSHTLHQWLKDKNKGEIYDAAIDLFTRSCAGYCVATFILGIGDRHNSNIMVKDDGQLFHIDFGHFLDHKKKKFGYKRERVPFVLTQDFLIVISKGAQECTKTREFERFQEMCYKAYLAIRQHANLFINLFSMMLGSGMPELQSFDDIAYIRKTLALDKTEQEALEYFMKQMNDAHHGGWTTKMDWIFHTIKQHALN

SMILES: Cn1c(=O)n(C2CCOCC2)c2c3cc(-c4ccc(OCCC[N+](C)(C)[O-])nc4)ccc3ncc21 [Example 1]
- IC50 (PI3Kα): 17.8 µM
- IC50 (ATM): 0.0054 µM
- IC50 (mTOR): > 1.25 µM
- IC50 (ATR): 10.3 µM
